Columns and labels:
Human HDAC1 = molecular target: T1, Human HDAC1 (Homo sapiens, UniProt Q13547); test: HDAC1 biochemical assay, AMC-labeled peptide substrate; details: read-out: HDAC Isoform IC50 (nM) 1
T1 construct: full length with C-terminal His-tag and C-terminal FLAG-tag; His (C); FLAG (C); host or cells: baculovirus expression system
Procedure: (§1) Activity against all zinc-dependent HDACs 1 to 11 was assessed by using an acetylated AMC-labeled peptide substrate. The substrate RHKK(Ac)AMC was used for HDAC1, HDAC2, HDAC3, HDAC6 and HDAC10; the substrate used for HDAC8 was RHK(Ac)K(Ac)AMC. Activity against the class IIa HDACs (HDAC4, 5, 7, 9) and HDAC11 was determined using a class IIa-specific substrate, BOC-Lys(trifluoroacetyl)-AMC (“Trifluoroacetyl Lysine”; see Lahm et al, 2007, PNAS, 104, 17335-17340). All assays were based on the AMC-labeled substrate and developer combination.
(§2) The protocol involved a two-step reaction: first, the substrate with the acetylated lysine side chain is incubated with a sample containing HDAC activity, to produce the deacetylated products, which are then digested in the second step by the addition of developer to produce the fluorescent signal proportional to the amount of deacetylated substrates.
Human HDAC1 (GenBank Accession No. NM_004964), full length with C-terminal His-tag and C-terminal FLAG-tag, MW=56 kDa, expressed in baculovirus expression system.
(§3) Assay Buffer: 50 mM Tris-HCl, pH8.0, 137 mM NaCl, 2.7 mM KCl, 1 mM MgC2. Before use, 1 mg/mL BSA and DMSO are added.
HDAC1: 0.3 ng/ul HDAC1 and 50 μM HDAC substrate are in the reaction buffer with 1% DMSO final. Incubate for 1 hour at 30° C.
(§4) Stage 1: Deacetylation of substrate by incubation of HDAC enzymes with compounds
(§5) Stage 2: Development by addition of Developer to digest the deacetylated substrate, and generate the fluorescent colour; Detection: 360/460 Ex/Em

Human HDAC4 = molecular target: T2, Human HDAC4 (Homo sapiens, UniProt P56524); test: HDAC4 biochemical assay, class IIa-specific substrate; details: read-out: HDAC Isoform IC50 (nM) 4
T2 construct: amino acids 627-1085 with N-terminal GST tag; GST (N); host or cells: baculovirus expression system
Procedure: as §1, §2
Human HDAC4 (GenBank Accession No. NM_006037), amino acids 627-1085 with N-terminal GST tag, MW=75.2 kDa, expressed in baculovirus expression system.
as §3
(§6) For class IIa HDACs, assay buffer is the same.
HDAC4: 0.004 ng/ul HDAC4 and 50 μM Class IIa HDAC substrate are in the reaction buffer with 1% DMSO final. Incubate for 30 minutes at room temperature.
as §4, §5

Human HDAC5 = molecular target: T3, Human HDAC5 (Homo sapiens, UniProt Q9UQL6); test: HDAC5 biochemical assay, class IIa-specific substrate; details: read-out: HDAC Isoform IC50 (nM) 5
T3 construct: full length with C-terminal His tag, MW=51.1 kDa; His (C); host or cells: baculovirus expression system
Procedure: as §1, §2
Human HDAC5 (GenBank Accession No. NM_005474), full length with C-terminal His tag, MW=51.1 kDa, expressed in baculovirus expression system.
as §3, §6
HDAC5: 0.05 ng/ul HDAC5 and 50 μM Class IIa HDAC substrate are in the reaction buffer with 1% DMSO final. Incubate for 30 minutes at room temperature.
as §4, §5

Recombinant human HDAC6 = molecular target: T4, Recombinant human HDAC6 (Homo sapiens, UniProt Q9UBN7); test: HDAC6 biochemical assay, AMC-labeled peptide substrate; details: HDAC6; read-out: HDAC Isoform IC50 (nM) 6
T4 construct: full length, MW=159 kDa; GST (N); host or cells: Sf9 insect cells (baculovirus)
T4 sequence (Q9UBN7 1-1215): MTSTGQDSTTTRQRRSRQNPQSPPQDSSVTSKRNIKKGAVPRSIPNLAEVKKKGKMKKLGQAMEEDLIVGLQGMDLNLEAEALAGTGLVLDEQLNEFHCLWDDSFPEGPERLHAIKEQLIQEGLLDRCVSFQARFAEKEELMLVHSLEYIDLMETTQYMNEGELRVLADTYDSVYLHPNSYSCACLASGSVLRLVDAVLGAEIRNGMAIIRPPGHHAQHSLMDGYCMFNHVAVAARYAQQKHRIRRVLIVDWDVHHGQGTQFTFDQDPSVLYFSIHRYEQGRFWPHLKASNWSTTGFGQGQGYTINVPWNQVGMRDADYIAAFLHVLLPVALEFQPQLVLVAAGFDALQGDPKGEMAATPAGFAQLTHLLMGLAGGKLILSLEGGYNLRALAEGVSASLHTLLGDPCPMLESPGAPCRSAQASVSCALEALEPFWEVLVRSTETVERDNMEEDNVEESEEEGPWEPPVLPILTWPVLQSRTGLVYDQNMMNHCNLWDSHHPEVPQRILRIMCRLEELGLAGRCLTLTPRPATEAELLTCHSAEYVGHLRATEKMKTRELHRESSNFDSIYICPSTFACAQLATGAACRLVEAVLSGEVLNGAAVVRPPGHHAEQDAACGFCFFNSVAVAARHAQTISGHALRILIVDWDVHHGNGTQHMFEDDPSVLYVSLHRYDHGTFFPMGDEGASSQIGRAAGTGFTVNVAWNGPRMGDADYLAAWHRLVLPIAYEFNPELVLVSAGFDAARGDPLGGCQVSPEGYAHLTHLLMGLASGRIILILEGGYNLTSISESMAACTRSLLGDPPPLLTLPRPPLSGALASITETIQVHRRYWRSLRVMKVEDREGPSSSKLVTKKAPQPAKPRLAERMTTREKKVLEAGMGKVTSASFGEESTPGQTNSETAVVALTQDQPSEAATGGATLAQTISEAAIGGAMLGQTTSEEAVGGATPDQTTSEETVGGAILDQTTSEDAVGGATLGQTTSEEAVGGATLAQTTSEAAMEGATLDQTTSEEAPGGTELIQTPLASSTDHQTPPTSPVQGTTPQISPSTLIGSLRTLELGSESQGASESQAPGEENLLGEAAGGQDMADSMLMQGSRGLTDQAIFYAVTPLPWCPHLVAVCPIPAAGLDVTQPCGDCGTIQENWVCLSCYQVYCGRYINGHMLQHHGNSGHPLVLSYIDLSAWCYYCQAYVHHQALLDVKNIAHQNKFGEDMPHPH
Procedure: as §1, §2
Recombinant human HDAC6 (GenBank Accession No. BC069243), full length, MW=159 kDa, was expressed by baculovirus in Sf9 insect cells using an N-terminal GST tag.
as §3
HDAC6: 0.3 ng/ul HDAC6 and 50 μM HDAC substrate are in the reaction buffer with 1% DMSO final. Incubate for 1 hours at 30° C.
as §4, §5

Human HDAC7 = molecular target: T5, Human HDAC7 (Homo sapiens, UniProt Q8WUI4); test: HDAC7 biochemical assay, class IIa-specific substrate; details: read-out: HDAC Isoform IC50 (nM) 7
T5 construct: (a.a. 518-end) with N-terminal GST tag; GST (N); host or cells: baculovirus expression system
T5 sequence (Q8WUI4 518-952 limits assumed): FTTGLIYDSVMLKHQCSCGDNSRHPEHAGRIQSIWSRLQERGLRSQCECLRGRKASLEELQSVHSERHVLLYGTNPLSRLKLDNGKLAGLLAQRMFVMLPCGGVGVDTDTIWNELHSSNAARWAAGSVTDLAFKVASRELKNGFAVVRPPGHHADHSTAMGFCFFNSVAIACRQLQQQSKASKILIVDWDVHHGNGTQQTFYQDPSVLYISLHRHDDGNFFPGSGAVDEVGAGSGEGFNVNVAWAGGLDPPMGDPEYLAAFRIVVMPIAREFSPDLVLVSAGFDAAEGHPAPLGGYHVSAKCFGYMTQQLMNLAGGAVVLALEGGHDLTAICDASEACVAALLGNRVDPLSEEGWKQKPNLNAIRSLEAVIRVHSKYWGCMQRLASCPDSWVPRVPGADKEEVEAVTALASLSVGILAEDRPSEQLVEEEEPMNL
Procedure: as §1, §2
Human HDAC7 (GenBank Accession No. AY302468), (a.a. 518-end) with N-terminal GST tag, MW=78 kDa, expressed in baculovirus expression system.
as §3, §6
HDAC7: 0.001 ng/ul HDAC7 and 50 μM Class IIa HDAC substrate are in the reaction buffer with 1% DMSO final. Incubate for 30 minutes at room temperature.
as §4, §5

Human HDAC9 = molecular target: T6, Human HDAC9 (Homo sapiens, UniProt Q9UKV0); test: HDAC9 biochemical assay, class IIa-specific substrate; details: read-out: HDAC Isoform IC50 (nM) 9
T6 construct: amino acids 604-1066 with C-terminal His tag; His (C); host or cells: baculovirus expression system
Procedure: as §1, §2
Human HDAC9 (GenBank Accession No. NM_178423), amino acids 604-1066 with C-terminal His tag, MW=50.7 kDa, expressed in baculovirus expression system.
as §3, §6
HDAC9: 0.06 ng/ul HDAC9 and 50 μM Class IIa HDAC substrate are in the reaction buffer with 1% DMSO final. Incubate for 30 minutes at room temperature.
as §4, §5

T6 sequence (Q9UKV0 604-1066 isoform Q9UKV0-5): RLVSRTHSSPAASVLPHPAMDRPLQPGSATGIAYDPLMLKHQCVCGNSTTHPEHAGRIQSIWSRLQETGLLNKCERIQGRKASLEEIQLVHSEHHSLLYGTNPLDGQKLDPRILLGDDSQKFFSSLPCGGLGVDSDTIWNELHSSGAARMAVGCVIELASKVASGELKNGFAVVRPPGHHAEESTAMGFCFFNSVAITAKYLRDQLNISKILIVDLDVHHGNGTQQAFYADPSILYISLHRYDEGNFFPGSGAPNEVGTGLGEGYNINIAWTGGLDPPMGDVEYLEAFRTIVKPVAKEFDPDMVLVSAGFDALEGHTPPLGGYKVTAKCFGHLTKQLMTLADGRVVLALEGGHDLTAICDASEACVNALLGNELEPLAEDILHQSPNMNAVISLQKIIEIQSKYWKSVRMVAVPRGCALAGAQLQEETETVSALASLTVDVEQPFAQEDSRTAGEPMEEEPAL
T1 sequence (Q13547 whole entry, canonical isoform): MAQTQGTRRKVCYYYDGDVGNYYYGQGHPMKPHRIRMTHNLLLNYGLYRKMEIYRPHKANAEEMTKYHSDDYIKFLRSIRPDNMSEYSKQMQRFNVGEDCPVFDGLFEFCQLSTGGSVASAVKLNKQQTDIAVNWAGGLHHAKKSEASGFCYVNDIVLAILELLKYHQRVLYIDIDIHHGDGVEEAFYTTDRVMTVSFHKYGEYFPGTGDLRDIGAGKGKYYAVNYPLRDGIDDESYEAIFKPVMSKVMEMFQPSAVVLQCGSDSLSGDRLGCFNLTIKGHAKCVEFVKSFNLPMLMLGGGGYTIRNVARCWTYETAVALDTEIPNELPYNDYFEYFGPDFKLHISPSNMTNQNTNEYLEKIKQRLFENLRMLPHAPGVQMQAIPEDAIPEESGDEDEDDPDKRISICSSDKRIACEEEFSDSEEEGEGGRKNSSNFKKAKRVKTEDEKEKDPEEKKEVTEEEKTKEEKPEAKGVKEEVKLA
T3 sequence (Q9UQL6 656-1122 limits assumed): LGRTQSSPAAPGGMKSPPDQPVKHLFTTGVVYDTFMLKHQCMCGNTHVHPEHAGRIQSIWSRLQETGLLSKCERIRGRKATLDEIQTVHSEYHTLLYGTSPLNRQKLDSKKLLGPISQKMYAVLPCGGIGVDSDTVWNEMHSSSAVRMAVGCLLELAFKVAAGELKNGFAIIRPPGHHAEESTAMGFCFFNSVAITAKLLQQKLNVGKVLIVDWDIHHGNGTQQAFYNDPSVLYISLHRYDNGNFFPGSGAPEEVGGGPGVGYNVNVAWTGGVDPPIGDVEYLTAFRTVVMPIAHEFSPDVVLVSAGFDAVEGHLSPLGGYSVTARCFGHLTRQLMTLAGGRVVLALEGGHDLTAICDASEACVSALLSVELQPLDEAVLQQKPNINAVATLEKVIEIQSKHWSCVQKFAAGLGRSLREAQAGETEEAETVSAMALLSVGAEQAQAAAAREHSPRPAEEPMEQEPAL
T2 sequence (P56524 627-1084 limits assumed): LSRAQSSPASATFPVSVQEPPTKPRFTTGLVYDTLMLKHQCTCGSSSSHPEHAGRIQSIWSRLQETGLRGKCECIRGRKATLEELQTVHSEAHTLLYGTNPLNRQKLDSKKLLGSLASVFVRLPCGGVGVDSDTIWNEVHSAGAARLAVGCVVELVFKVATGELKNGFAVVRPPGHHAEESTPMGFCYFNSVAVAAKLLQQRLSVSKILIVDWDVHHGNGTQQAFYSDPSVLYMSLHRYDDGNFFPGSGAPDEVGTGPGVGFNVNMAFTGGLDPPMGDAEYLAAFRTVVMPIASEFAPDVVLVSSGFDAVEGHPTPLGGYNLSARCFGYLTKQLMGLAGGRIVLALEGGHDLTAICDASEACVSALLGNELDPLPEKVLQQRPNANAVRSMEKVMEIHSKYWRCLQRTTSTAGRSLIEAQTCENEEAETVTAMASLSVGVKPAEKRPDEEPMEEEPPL

SMILES	IC50 (Human HDAC1)	IC50 (Human HDAC4)	IC50 (Human HDAC5)	IC50 (Recombinant human HDAC6)	IC50 (Human HDAC7)	IC50 (Human HDAC9)
Cc1nccc(N(Cc2ccc(-c3noc(C(F)(F)F)n3)s2)c2cnccn2)n1 [Example CA, 2-Methyl-N-(pyrazin-2-yl)-N-({5-[5-(trifluoromethyl)-1,2,4-oxadiazol-3-yl]thiophen-2-yl}methyl)pyrimidin-4-amine]	> 10000 nM	≤ 1000 nM	≤ 1000 nM	≤ 10000 nM	≤ 1000 nM	≤ 1000 nM
FC(F)(F)c1cnnc(N(Cc2ccc(-c3noc(C(F)(F)F)n3)s2)c2ccc(N3CCCC3)nn2)c1 [Example EW, 6-(Pyrrolidin-1-yl)-N-({5-[5-(trifluoromethyl)-1,2,4-oxadiazol-3-yl]thiophen-2-yl}methyl)-N-[5-(trifluoromethyl)pyridazin-3-yl]pyridazin-3-amine]	> 10000 nM	≤ 10000 nM	≤ 10000 nM	≤ 10000 nM	≤ 10000 nM	≤ 10000 nM
CS(=O)(=O)c1cnc(N(Cc2ccc(-c3noc(C(F)(F)F)n3)s2)c2cnccn2)cn1 [Example BL, 5-Methanesulfonyl-N-(pyrazin-2-yl)-N-({5-[5-(trifluoromethyl)-1,2,4-oxadiazol-3-yl]thiophen-2-yl}methyl)pyrazin-2-amine]	> 10000 nM	≤ 1000 nM	≤ 1000 nM	≤ 10000 nM	≤ 1000 nM	≤ 10000 nM
FC(F)(F)c1nc(-c2ccc(CN(c3cnccn3)c3ccc(-c4ccccc4)nn3)s2)no1 [Example DN, 6-Phenyl-N-(pyrazin-2-yl)-N-({5-[5-(trifluoromethyl)-1,2,4-oxadiazol-3-yl]thiophen-2-yl}methyl)pyridazin-3-amine]	≤ 10000 nM	≤ 1000 nM	≤ 500 nM	≤ 500 nM	≤ 500 nM	≤ 10000 nM
Cn1cnc2cc(N(Cc3ccc(-c4noc(C(F)(F)F)n4)s3)c3cnccn3)ncc21 [Example AE, N-{3-Methyl-3H-imidazo[4,5-c]pyridin-6-yl}-N-({5-[5-(trifluoromethyl)-1,2,4-oxadiazol-3-yl]thiophen-2-yl}methyl)pyrazin-2-amine]	> 10000 nM	≤ 500 nM	≤ 500 nM	≤ 10000 nM	≤ 1000 nM	≤ 10000 nM

More lines, now with the values ahead:

IC50 (Human HDAC1)	IC50 (Human HDAC4)	IC50 (Human HDAC5)	IC50 (Recombinant human HDAC6)	IC50 (Human HDAC7)	IC50 (Human HDAC9)	SMILES
> 10000 nM	≤ 500 nM	≤ 500 nM	≤ 10000 nM	≤ 1000 nM	≤ 1000 nM	Cc1ncc(N(Cc2ccc(-c3noc(C(F)(F)F)n3)s2)c2cnccn2)c(C)n1 [Example DB, 2,4-Dimethyl-N-(pyrazin-2-yl)-N-({5-[5-(trifluoromethyl)-1,2,4-oxadiazol-3-yl]thiophen-2-yl}methyl)pyrimidin-5-amine]
> 10000 nM	≤ 10000 nM	≤ 10000 nM	≤ 10000 nM	> 10000 nM	≤ 10000 nM	FC(F)(F)c1ccc(N(Cc2ccc(-c3noc(C(F)(F)F)n3)s2)c2cnccn2)nc1 [Example AB, N-({5-[5-(Trifluoromethyl)-1,2,4-oxadiazol-3-yl]thiophen-2-yl}methyl)-N-[5-(trifluoromethyl)pyridin-2-yl]pyrazin-2-amine]
> 10000 nM	≤ 10000 nM	≤ 10000 nM	≤ 1000 nM	≤ 10000 nM	≤ 10000 nM	COc1cncnc1N(Cc1ccc(-c2noc(C(F)(F)F)n2)s1)c1cnccn1 [Example CP, 5-Methoxy-N-(pyrazin-2-yl)-N-({5-[5-(trifluoromethyl)-1,2,4-oxadiazol-3-yl]thiophen-2-yl}methyl)pyrimidin-4-amine]
> 10000 nM	≤ 10000 nM	≤ 1000 nM	≤ 1000 nM	≤ 10000 nM	≤ 10000 nM	COc1ccc2ncnc(N(Cc3ccc(-c4noc(C(F)(F)F)n4)s3)c3cnccn3)c2c1 [Example CN, 6-Methoxy-N-(pyrazin-2-yl)-N-({5-[5-(trifluoromethyl)-1,2,4-oxadiazol-3-yl]thiophen-2-yl}methyl)quinazolin-4-amine]

— patent publication US20210038607A1, “OXADIAZOLYLTHIOPHENE DERIVATIVES USEFUL AS HISTONE DEACETYLASE INHIBITORS” (Karus Therapeutics Limited, priority 2018, published 2021)
